From patent US6608111B1, “Method for treating or preventing prostatic conditions” (Southern Illinois University Office of Research, …, priority 1998, dated 2003)
“Also recorded” adds a separate entry of the source.

Key:
[1] = tested on: uterine cytosolic estrogen receptors (ER); conditions: competitive binding-inhibition, relative to E2; cited from earlier work
[2] = tested on: male and female Wistar rats; assay: Experiment 2: chronic treatment of male and female rats, 5-6 weeks; type: in vivo, rat; conditions: for Food intake: n = 5
Procedure: Twenty-five male and 25 female Wistar rats, 7-8 weeks of age, were randomly assigned to groups of five animals, respectively, for treatment with vehicle only (V), estradiol (E), (±)-Z-BDDA, (+)-Z-BDDA, or (−)-Z-BDDA. Each animal in group V received a daily 0.1 cc injection of a 10% ethanol-90% olive oil solution; the other treatments received their respective compound as a daily 0.1 cc injection, e.g., 2.5 μg of compound/g of body weight, in a 10% ethanol-90% olive oil solution. A temperature of 21° C. and an artificial 12-h light-dark cycle were maintained in the animal room. All animals were maintained on standard chow in powdered form, the males for five weeks and the females for six weeks, then sacrificed after an overnight fast under i.p. pentobarbital anesthesia (50 mg/kg). Animal weight and food intake were measured weekly during the study and subsequent FER values were determined. During sacrifice, blood was collected (via cardiac puncture) for glucose, luteinizing hormone, prolactin and testosterone measurements. The amounts of luteinizing hormone, prolactin and testosterone were measured to help elucidate the target tissue of the respective compounds in male and female rats. Immediately following sacrifice the fat pads and reproductive organs were removed and weighed.
(§1) Experiments 1 and 2 employed a randomized design. All data were analyzed by one-way analysis of variance (ANOVA,)and post-hoc comparisons were made with Tukey pairwise comparisons test. Significance was confirmed at p≦0.05 (SYSTAT 7.0, SPSS INC., 1997), and all values are reported as means±standard error of the mean.

[3] = tested on: male and female Sprague-Dawley rats; assay: Experiment 1: chronic treatment of male and female rats, 4 weeks; type: in vivo, rat; conditions: mean ± SEM; for Food intake: n = 5
Procedure: Twenty-five male and 25 female Sprague-Dawley rats, 9-10 weeks of age, were randomly assigned to groups of five animals, respectively, as a control group (no treatment) (C), for treatment with vehicle only (V), estradiol (E), (±)-Z-BDDA, or (+)-Z-BDDA. Each animal in group V received a daily 0.1 cc injection of a 10% ethanol-90% olive oil solution; the other treatments received their respective compound as a daily 0.1 cc injection, e.g., 2.5 μg of compound/g of body weight, in a 10% ethanol-90% olive oil solution. A temperature of 21° C. and an artificial 12-h light-dark cycle was maintained in the animal room. All animals were maintained on standard chow in powdered form for four weeks, then sacrificed after an overnight fast under i.p. pentobarbital anesthesia (50 mg/kg). Animal weight and food intake were measured weekly during the study, and the subsequent food-efficiency ratio [FER(g of weight change/g of food intake)] was determined. During sacrifice, blood was collected (via cardiac puncture) for cholesterol measurements. Immediately following sacrifice the fat pads and reproductive organs were removed and weighed.
as §1

female mice = conditions: E2 5 g/animal/day, (±)-Z-BDDA 5, 50, and 500 g/animal/day, versus control group; cited from earlier work
[4] = even at 1000-times the estrogenic dosage; cited from earlier work
[5] = tested on: MCF-7 human mammary cancer cell line; conditions: human MCF-7 cells in culture; cited from earlier work
[6] = in vivo assays, compared with estradiol; cited from earlier work
women = conditions: clinical; cited from earlier work
[7] = tested on: rats, cats, chicks, and guinea pigs; conditions: animals including rats; cited from earlier work
[8] = female rats, 2.5 ug/g of body weight daily, six weeks, mean ± SEM
[9] = male rats, 2.5 ug/g of body weight daily, five weeks, mean ± SEM
[10] = female rats, 2.5 ug/g of body weight daily
[11] = male rats, 2.5 ug/g of body weight daily

Compound: (±)-Z-bisdehydrodoisynolic acid [(±)-Z-BDDA]
- binding affinity as fraction of that of E2 [1]: 0.01-0.03
- Uterus/testis weight (g) ([2]; female rats (uterus), 2.5 ug/g of body weight daily, six weeks, mean ± SEM): 4.25 ± 1.04^1 g
- Blood glucose [2, 8]: 80.40 ± 5.66 mg/dL
- FER (food efficiency ratio) [2, 8]: 0.017 ± 0.003^1,2
- Food intake [2, 8]: 704.0 ± 51.7 g
- weight gain (percent weight change) ([2]; female rats, both experiments (FIGS. 2 and 3), 2.5 μg/g daily): repress weight gain slightly more than did (+)-Z-BDDA and E2
- Uterus/testis weight (g) ([2]; male rats (testis), 2.5 ug/g of body weight daily, five weeks, mean ± SEM): 0.78 ± 0.02^1 g
- testosterone ([2]; male rats, 2.5 μg/g daily, compared to the vehicle): less pronounced
- Blood glucose [2, 9]: 98.60 ± 14.00 mg/dL
- FER (food efficiency ratio) [2, 9]: −0.04 ± 0.01^1,2
- Prostate weight [2, 9]: 0.16 ± 0.02 g
- Food intake [2, 9]: 530.0 ± 33.0 g
- Uterus/testis weight (g) ([3]; female rats (uterus), 2.5 ug/g of body weight daily): 2.04 ± 0.45^1 g
- Food intake ([3]; female rats, 2.5 ug/g of body weight daily injection): 318.2 ± 21.8 g
- FER (food efficiency ratio) ([3]; female rats, 2.5 ug/g of body weight daily, g of weight change/g of food intake): −0.023 ± 0.027^1
- Cholesterol (mg/dl) [3, 10]: 30.1 ± 2.8^1 mg/dl
- Visceral fat [3, 10]: 1.3 ± 0.1 g
- Uterus/testis weight (g) ([3]; male rats (testis), 2.5 ug/g of body weight daily): 0.72 ± 0.06^1,2 g
- Cholesterol (mg/dl) [3, 11]: 36.2 ± 2.6^1,2 mg/dl
- FER (food efficiency ratio) [3, 11]: −0.099 ± 0.009^1,2
- Prostate weight (g) [3, 11]: 0.08 ± 0.02^1,2 g
- Visceral fat (g) [3, 11]: 4.5 ± 0.4^2 g
- Food intake [3, 11]: 344.6 ± 15.5 g
- rate of weight gain (female mice): diminished
- toxicity and carcinogenicity [4]: neither toxicity nor carcinogenicity
- MCF-7 cell proliferation (estrogenicity) [5]: high estrogenic potency
- estrogenicity: vaginal cornification and uterotropism [6]: rivaling or even surpassing estradiol

Compound: CC[C@@H](c1ccc2cc(OC)ccc2c1)C(C)(C)C(=O)O [compound 2, (−)-3-[2-(6-methoxynaphthyl)]-2,2-dimethyl-pentanoic acid]
- estrogenic response in women / humans (women): high dosages were required to elicit strong estrogenic responses
- MCF-7 cell proliferation (estrogenicity) [5]: very little effect
- estrogenic activity (estrogenicity) in animals [7]: strongest estrogenic activity; also recorded: highly estrogenic in animals, equivalent to 17β-estradiol
